As usually defined, the melting point is the temperature of the solid-liquid transition.

The structures appear in SMILES notation. Where a name gives a salt, the structure may show the parent alone.

Consider 23 compounds from patent US20050154042A1, “N-alkyl pyrroles as HMG-CoA reductase inhibitors” (priority 2003, published 2005).

`CC(C)n1c(CC[C@@H](O)C[C@@H](O)CC(=O)[O-])c(-c2ccc(F)cc2)c(-c2ccccc2)c1C(=O)NCc1cccc(C#N)c1.[Na+]` [Example 146, (3R,5R)-7-[5-(3-Cyano-benzylcarbamoyl)-3-(4-fluoro-phenyl)-1-isopropyl-4-phenyl-1H-pyrrol-2-yl]-3,5-dihydroxy-heptanoic Acid Sodium Salt] displayed a melting point of 180 to 182 °C.
Then `Cc1ccnc(NC(=O)c2c(-c3ccc(F)cc3)c(-c3ccc(F)cc3)c(C=O)n2C(C)C)n1` [Example 179, 3,4-bis-(4-fluoro-phenyl)-5-formyl-1-isopropyl-1H-pyrrole-2-carboxylic Acid (4-methyl-pyrimidin-2-yl)-amide], with 173 to 175 °C.
Next, `CNC(=O)c1c(-c2ccccc2)c(-c2ccc(F)cc2)c(/C=C/[C@@H](O)C[C@@H](O)CC(=O)[O-])n1C(C)C.[Na+]` [Example 157, (3R,5S)-7-[3-(4-Fluoro-phenyl)-1-isopropyl-5-methylcarbamoyl-4-phenyl-1H-pyrrol-2-yl]-3,5-dihydroxy-hept-6-enoic Acid Sodium Salt]: 224 to 226 °C; `COC(=O)c1ccc(NC(=O)c2c(-c3ccccc3)c(-c3ccc(F)cc3)c(CC[C@@H](O)C[C@@H](O)CC(=O)[O-])n2C(C)C)nc1.[Na+]` [Example 118, (3R,5R)-6-{[5-(6-Carboxy-3,5-dihydroxy-hexyl)-4-(4-fluoro-phenyl)-1-isopropyl-3-phenyl-1H-pyrrole-2-carbonyl]-amino}-nicotinic Acid Methyl Ester Sodium Salt]: 188 to 190 °C (dec.); `CC(C)n1c(CCC(O)C[C@@H](O)CC(=O)O)c(-c2ccc(F)cc2)c(-c2ccccc2)c1C(=O)Nc1ccc(F)cc1` (stereo partly drawn) (as salt: sodium) [Example 8, (3R)-7-[3-(4-Fluoro-phenyl)-5-(4-fluoro-phenylcarbamoyl)-1-isopropyl-4-phenyl-1H-pyrrol-2-yl]-3,5-dihydroxy-heptanoic Acid Sodium Salt]: 240 to 242 °C.
On to `CC(C)n1c(CC[C@@H](O)C[C@@H](O)CC(=O)O)c(-c2ccc(F)cc2)c(-c2ccc(F)cc2)c1C(=O)Nc1ccc(S(N)(=O)=O)cc1` (as salt: sodium) [Example 11, (3R,5R)-7-[3,4-Bis-(4-fluoro-phenyl)-1-isopropyl-5-(4-sulfamoyl-phenylcarbamoyl)-1H-pyrrol-2-yl]-3,5-dihydroxy-heptanoic Acid Sodium Salt], for which the melting point lay in the range of 261 to 263 °C.
`CC(C)n1c(/C=C/[C@@H](O)C[C@@H](O)CC(=O)[O-])c(-c2ccc(F)cc2)c(-c2ccccc2)c1C(=O)Nc1cccc(C#N)c1.[Na+]` [Example 143, (3R,5S)-7-[5-(3-Cyano-phenylcarbamoyl)-3-(4-fluoro-phenyl)-1-isopropyl-4-phenyl-1H-pyrrol-2-yl]-3,5-dihydroxy-hept-6-enoic Acid Sodium Salt] yielded a melting point of 210 to 212 °C.
For the compound `CC(C)n1c(CC[C@@H](O)C[C@@H](O)CC(=O)[O-])c(-c2ccc(F)cc2)c(-c2ccccc2)c1C(=O)NCc1cccc(C(=O)[O-])c1.[Na+].[Na+]` [Example 163, (3R,5R)-3-({[5-(6-Carboxy-3,5-dihydroxy-hexyl)-4-(4-fluoro-phenyl)-1-isopropyl-3-phenyl-1H-pyrrole-2-carbonyl]-amino}-methyl)-benzoic Acid Disodium Salt], the melting point is 240 to 245 °C.
Next, `CC(C)OC(=O)c1ccc(CNC(=O)c2c(-c3ccccc3)c(-c3ccc(F)cc3)c(/C=C/[C@@H](O)C[C@@H](O)CC(=O)[O-])n2C(C)C)cc1.[Na+]` [Example 149, (3R,5S)-7-[3-(4-Fluoro-phenyl)-5-(4-isopropoxycarbonyl-benzylcarbamoyl)-1-isopropyl-4-phenyl-1H-pyrrol-2-yl]-3,5-dihydroxy-hept-6-enoic Acid Sodium Salt]: 222 to 224 °C; `CC(C)n1c(CC[C@@H](O)C[C@@H](O)CC(=O)[O-])c(-c2ccc(F)cc2)c(-c2ccccc2)c1C(N)=O.[Na+]` [Example 161, (3R,5R)-7-[5-Carbamoyl-3-(4-fluoro-phenyl)-1-isopropyl-4-phenyl-1H-pyrrol-2-yl]-3,5-dihydroxy-heptanoic Acid Sodium Salt]: 212 to 214 °C; `CC(C)n1c(CC[C@@H](O)C[C@@H](O)CC(=O)[O-])c(-c2ccc(F)cc2)c(-c2ccccc2)c1C(=O)Nc1ccc(S(N)(=O)=O)cc1.[Na+]` [Example 4, (3R,5R)-7-[3-(4-Fluoro-phenyl)-1-isopropyl-4-phenyl-5-(4-sulfamoyl-phenylcarbamoyl)-1H-pyrrol-2-yl]-3,5-dihydroxy-heptanoic Acid Sodium Salt]: 265 to 267 °C.
Next, `CC(C)n1c(/C=C/[C@@H](O)C[C@@H](O)CC(=O)[O-])c(-c2ccc(F)cc2)c(-c2ccc(F)cc2)c1C(=O)Nc1cccc(OCc2ccccc2)c1.[Na+]` [Example 132, (3R,5 S)-7-[5-(3-Benzyloxy-phenylcarbamoyl)-3,4-bis-(4-fluoro-phenyl)-1-isopropyl-1H-pyrrol-2-yl]-3,5-dihydroxy-hept-6-enoic Acid Sodium Salt]: 225 to 227 °C.
As for `CC(C)n1c(/C=C/[C@@H](O)C[C@@H](O)CC(=O)[O-])c(-c2ccc(F)cc2)c(-c2ccccc2)c1C(=O)NCc1cccc(C#N)c1.[Na+]` [Example 147, (3R,5S)-7-[5-(3-Cyano-benzylcarbamoyl)-3-(4-fluoro-phenyl)-1-isopropyl-4-phenyl-1H-pyrrol-2-yl]-3,5-dihydroxy-hept-6-enoic Acid Sodium Salt], the melting point lay in the range of 208 to 210 °C.
Next, `CC(C)n1c(CC[C@@H](O)C[C@@H](O)CC(=O)[O-])c(-c2ccc(F)cc2)c(-c2ccc(F)cc2)c1C(=O)Nc1cccc(O)c1.[Na+]` [Example 135, (3R,5R)-7-[3,4-Bis-(4-fluoro-phenyl)-5-(3-hydroxy-phenylcarbamoyl)-1-isopropyl-1H-pyrrol-2-yl]-3,5-dihydroxy-heptanoic Acid Sodium Salt]: 220 to 222 °C; `CC(C)n1c(/C=C/[C@@H](O)C[C@@H](O)CC(=O)O)c(-c2ccc(F)cc2)c(-c2ccccc2)c1C(=O)Nc1ccc(S(N)(=O)=O)cc1` (as salt: sodium) [Example 5, (3R,5S)-7-[3-(4-Fluoro-phenyl)-1-isopropyl-4-phenyl-5-(4-sulfamoyl-phenylcarbamoyl)-1H-pyrrol-2-yl]-3,5-dihydroxy-hept-6-enoic Acid Sodium Salt]: 255 to 256 °C; `CCNC(=O)c1c(-c2ccccc2)c(-c2ccc(F)cc2)c(/C=C/[C@@H](O)C[C@@H](O)CC(=O)[O-])n1C(C)C.[Na+]` [Example 159, (3R,5S)-7-[5-Ethylcarbamoyl-3-(4-fluoro-phenyl)-1-isopropyl-4-phenyl-1H-pyrrol-2-yl]-3,5-dihydroxy-hept-6-enoic Acid Sodium Salt]: 226 to 228 °C.
Next, `COc1cccc(NC(=O)c2c(-c3ccc(F)cc3)c(-c3ccc(F)cc3)c(CC[C@@H](O)C[C@@H](O)CC(=O)[O-])n2C(C)C)c1.[Na+]` [Example 136, (3R,5R)-7-[3,4-Bis-(4-fluoro-phenyl)-1-isopropyl-5-(3-methoxy-phenylcarbamoyl)-1H-pyrrol-2-yl]-3,5-dihydroxy-heptanoic Acid Sodium Salt]: 215 to 217 °C; `COc1ccc([C@@H](C)NC(=O)c2c(-c3ccc(F)cc3)c(-c3ccc(F)cc3)c(/C=C/[C@@H](O)C[C@@H](O)CC(=O)[O-])n2C(C)C)cc1.[Na+]` [Example 155, (3R,5S)-7-{3,4-Bis-(4-fluoro-phenyl)-1-isopropyl-5-[(R)-1-(4-methoxy-phenyl)-ethylcarbamoyl]-1H-pyrrol-2-yl)-3,5-dihydroxy-hept-6-enoic Acid Sodium Salt]: 255 to 257 °C.
With `COc1cccc(CNC(=O)c2c(-c3ccc(F)cc3)c(-c3ccc(F)cc3)c(CC[C@@H](O)C[C@@H](O)CC(=O)[O-])n2C(C)C)c1.[Na+]` [Example 110, (3R,5R)-7-[3,4-Bis-(4-fluoro-phenyl)-1-isopropyl-5-(3-methoxy-benzylcarbamoyl)-1H-pyrrol-2-yl]-3,5-dihydroxy-heptanoic Acid, Sodium Salt], the melting point was in the range of 207 to 209 °C.
Next, `CC(C)n1c(/C=C/[C@@H](O)C[C@@H](O)CC(=O)[O-])c(-c2ccc(F)cc2)c(-c2ccc(F)cc2)c1C(=O)Nc1ccccc1OCc1ccccc1.[Na+]` [Example 131, (3R,5S)-7-[5-(2-Benzyloxy-phenylcarbamoyl)-3,4-bis-(4-fluoro-phenyl)-1-isopropyl-1H-pyrrol-2-yl]-3,5-dihydroxy-hept-6-enoic Acid Sodium Salt]: 228 to 229 °C; `COC(=O)c1ccc(NC(=O)c2c(-c3ccccc3)c(-c3ccc(F)cc3)c(CC[C@@H](O)C[C@@H](O)CC(=O)[O-])n2C(C)C)cc1.[Na+]` [Example 116, (3R,5R)-4-{[5-(6-Carboxy-3,5-dihydroxy-hexyl)-4-(4-fluoro-phenyl)-1-isopropyl-3-phenyl-1H-pyrrole-2-carbonyl]-amino}-benzoic Acid Methyl Ester Sodium Salt]: 188 to 191 °C (dec.); `CC(C)n1c(CC[C@@H](O)C[C@@H](O)CC(=O)O)c(-c2ccc(F)cc2)c(-c2ccccc2)c1C(=O)NCc1cn2c(n1)CCCC2` (as salt: sodium) [Example 93, (3R,5R)-7-[3-(4-Fluorophenyl)-1-isopropyl-5-[(5,6,7,8-tetrahydro-imidazo[1,2-a]pyridin-2-yl Methyl)carbamoyl]-4-phenyl-1H-pyrrol-2-yl]-3,5-dihydroxyheptanoic Acid Sodium Salt]: 239 to 241 °C (dec.).
Then `CC(C)n1c(CC[C@@H](O)C[C@@H](O)CC(=O)[O-])c(-c2ccc(F)cc2)c(-c2ccc(F)cc2)c1C(=O)NCc1ccccn1.[Na+]` [Example 69, (3R,5R)-7-{3,4-bis-(4-fluoro-phenyl)-1-isopropyl-5-[(pyridin-2-ylmethyl)-carbamoyl]-1H-pyrrol-2-yl}-3,5-dihydroxy-heptanoate Sodium Salt], with 200 to 205 °C.
